This note sets out measurements from PubChem BioAssay (NCI).

Test systems include HCT-15 colon; NCI-H460 lung; 786-0 renal; KM20L2 colon; HOP-92 NSCLC; SNB-19 CNS; MALME-3M melanoma; A498 renal; DMS 273 small cell lung; HOP-18 NSCLC; MDA-N; PC-3 prostate.
What all share (assay): NCI tumour cell line growth inhibition, 48 h

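Values below derive from 48-hour exposures of cells grown in 96-well plates, with endpoints linearly interpolated between the two concentrations bracketing the appropriate inhibition level. Definition used: TGI = concentration required for complete inhibition of growth.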 *1 amine or outer side, *2 acyl side, *3 side chain or, on linkers, in order; H or OH if unused. Where a SMILES comes first, the peptide text is derived from it. Bridges are numbered along the chain shown (N, C = ends). [ ]: non-standard residue; d: D form. The star is where a group is joined. X38 = CC[C@H](C)[C@@H](N[*:1])[C@@H](O)CC(=O)[*:2]; NMeY = CN[C@@H](Cc1ccc(O)cc1)C(=O)O; dNMeL = CN[C@H](CC(C)C)C(=O)O; Hiv = CC(C)[C@H](O)C(=O)O; Pyruvoyl = CC(=O)C(=O)* Some results are limits rather than exact numbers.

On to `COC(=O)c1[nH]c(=S)[nH]c(=O)c1-c1ccc(Cl)cc1`, for which the TGI with HCT-15 colon, with NCI-H460 lung, in the test on 786-0 renal, in the test with KM20L2 colon, with HOP-92 NSCLC and with SNB-19 CNS was more than 50 µM throughout. For the same compound, the TGI in the test with MALME-3M melanoma, in the test with A498 renal and with DMS 273 small cell lung was more than 50 µM throughout.

`COc1cc(NC(C)=O)c2[nH]c3c(C)cc(NC(C)=O)c(C)c3c2c1`: the TGI in the test on HCT-15 colon, with NCI-H460 lung, with 786-0 renal, in the test on KM20L2 colon, in the test with HOP-92 NSCLC and in the test with SNB-19 CNS was more than 100 µM throughout. Besides, the TGI in the test with A498 renal, in the test with HOP-18 NSCLC and in the test on DMS 273 small cell lung was more than 100 µM each time.

As to `c1ccc(Nc2nnc(CSc3nc(-c4ccccc4)c(-c4ccccc4)[nH]3)s2)cc1`, the TGI was found to be 49.9 µM in the test with HCT-15 colon; 36.3 µM with NCI-H460 lung; 39.3 µM in the test on 786-0 renal; 48.5 µM in the test on KM20L2 colon; 37.7 µM with HOP-92 NSCLC; 34.6 µM in the test on MALME-3M melanoma. The TGI is 49.1 µM with A498 renal and 43.4 µM in the test on DMS 273 small cell lung.

On to `C=CCONC(=O)c1ccc(Cl)cc1`, for which the TGI with HCT-15 colon, in the test on NCI-H460 lung, in the test on 786-0 renal, with KM20L2 colon, with HOP-92 NSCLC and with SNB-19 CNS was more than 100 µM each time. Also, the TGI in the test on MALME-3M melanoma, in the test with A498 renal and in the test with HOP-18 NSCLC was more than 100 µM in each case.

As to `CCOC(=O)CSc1ccnc(=O)[nH]1`, the TGI in the test with HCT-15 colon, in the test on NCI-H460 lung, with 786-0 renal, in the test with KM20L2 colon, in the test on SNB-19 CNS and in the test on MALME-3M melanoma was more than 100 µM each time. Also, the TGI in the test on A498 renal and in the test with DMS 273 small cell lung was more than 100 µM each time.

As for `CC[C@H](C)[C@H]1NC(=O)[C@@H](NC(=O)[C@@H](CC(C)C)N(C)C(=O)[C@@H]2CCCN2C(=O)C(C)=O)[C@@H](C)OC(=O)[C@H](Cc2ccc(OC)cc2)N(C)C(=O)[C@@H]2CCCN2C(=O)[C@H](CC(C)C)NC(=O)[C@H](C(C)C)OC(=O)C[C@@H]1O` (Pyruvoyl-P[dNMeL]T[X38][Hiv]LP[NMeY](Me); ester 3-C), the TGI in the test on HCT-15 colon is 3.29 µM; in the test with MDA-N it was 0.14 µM; with NCI-H460 lung, 0.0321 µM; in the test with 786-0 renal, 0.0397 µM; in the test on HOP-92 NSCLC, 0.374 µM; in the test with PC-3 prostate it was 0.261 µM. Besides, the TGI in the test on SNB-19 CNS stood at 0.721 µM; with MALME-3M melanoma it was 0.107 µM; in the test with A498 renal, 0.0904 µM.

Consider `CN(C(=O)C12C3C4C1C1C2C3C41I)C(C)(C)C` (centres undefined), for which the TGI with HCT-15 colon, in the test with NCI-H460 lung, in the test on 786-0 renal, with KM20L2 colon, in the test on SNB-19 CNS and in the test with MALME-3M melanoma was more than 100 µM in each case. Further, the TGI in the test with A498 renal, with HOP-18 NSCLC and in the test with DMS 273 small cell lung was more than 100 µM each time.

With `CC#COP(=O)(OCC)OCC`, the TGI in the test on HCT-15 colon, in the test with NCI-H460 lung, in the test on 786-0 renal, in the test on KM20L2 colon, in the test on SNB-19 CNS and in the test on MALME-3M melanoma was more than 100 µM in each case. The compound also had a TGI in the test on A498 renal of more than 100 µM.

As to `Cn1c(O)c(C(=O)Nc2cccs2)c(=O)[nH]c1=S`, the TGI in the test with HCT-15 colon came to 43 µM; with NCI-H460 lung, 43.7 µM; in the test with 786-0 renal, 41.8 µM; in the test on KM20L2 colon, 34.1 µM; with HOP-92 NSCLC it was 33.4 µM; in the test with SNB-19 CNS, 79.6 µM. For the same compound, the TGI in the test with MALME-3M melanoma amounted to 29.5 µM; in the test with A498 renal it was 35.8 µM; in the test with HOP-18 NSCLC, 8.34 µM.

Regarding `CC(C)=CCCC1(C)C=Cc2c(c(C)cc3c2[nH]c2cc(O)ccc23)O1` (centres undefined), the TGI in the test on HCT-15 colon, in the test with NCI-H460 lung, in the test on 786-0 renal, in the test on KM20L2 colon, in the test with HOP-92 NSCLC and in the test on SNB-19 CNS was more than 25 µM in each case. Further, the TGI in the test on MALME-3M melanoma, in the test with HOP-18 NSCLC and in the test on DMS 273 small cell lung was more than 25 µM in each case.

For `CCOC(=O)CCC(NC(=O)Cc1ccc(Nc2nc3ccccc3nc2-c2ccccc2)cc1)C(=O)OCC` (centres undefined), the TGI is more than 100 µM with HCT-15 colon; more than 100 µM in the test on MDA-N; more than 100 µM in the test with NCI-H460 lung; more than 100 µM in the test with 786-0 renal; 45.8 µM in the test on HOP-92 NSCLC; more than 100 µM in the test on PC-3 prostate. In addition, the TGI with SNB-19 CNS, with MALME-3M melanoma and in the test on A498 renal was more than 100 µM in each case.

Regarding `CCCCCCn1c(SCC)c2ccccc2c1-c1nc(F)nc(F)n1`, the TGI with HCT-15 colon, in the test with NCI-H460 lung, in the test on 786-0 renal, in the test on KM20L2 colon, in the test with HOP-92 NSCLC and in the test on SNB-19 CNS was more than 100 µM in each case. The TGI in the test with MALME-3M melanoma and in the test with DMS 273 small cell lung was more than 100 µM throughout.

On to `O=C(NO)c1ccc([N+](=O)[O-])cc1`, for which the TGI in the test on HCT-15 colon, with NCI-H460 lung, in the test with 786-0 renal, with KM20L2 colon, in the test with SNB-19 CNS and in the test on MALME-3M melanoma was more than 100 µM in each case. Further, the values for the TGI with A498 renal and in the test with DMS 273 small cell lung were 85.4 µM and more than 100 µM, respectively.

In the case of `Fc1cc(C2=C[C@H](c3ccc(Cl)cc3)NC(=S)N2)c(Cl)cc1Cl`, the TGI in the test on HCT-15 colon, in the test with MDA-N, with NCI-H460 lung, in the test with 786-0 renal, with HOP-92 NSCLC and in the test on PC-3 prostate was more than 100 µM in each case. Moreover, the TGI in the test with SNB-19 CNS is more than 100 µM; in the test on MALME-3M melanoma, more than 100 µM; with A498 renal, 89.6 µM.

As to `CCOC(=O)/C(O)=C(/C=N\C(=S)Nc1ccccc1Cl)C(=O)OCC`, the TGI in the test on HCT-15 colon was more than 100 µM; with MDA-N it was more than 100 µM; with NCI-H460 lung, more than 100 µM; in the test with 786-0 renal, more than 100 µM; in the test with HOP-92 NSCLC, 90.9 µM; with PC-3 prostate it was more than 100 µM. In addition, the TGI in the test on SNB-19 CNS, in the test with MALME-3M melanoma and in the test with A498 renal was more than 100 µM each time.

Consider `COc1ccc(/C=C(\Cl)c2ccc(OC)c(OC)c2)cc1OC`, for which the TGI in the test with HCT-15 colon, in the test on MDA-N, in the test with NCI-H460 lung, in the test with 786-0 renal, with KM20L2 colon and with HOP-92 NSCLC was more than 100 µM each time. For the same compound, the TGI in the test with PC-3 prostate, in the test on SNB-19 CNS, with MALME-3M melanoma, with A498 renal and with DMS 273 small cell lung was more than 100 µM each time.

On to `Cc1occc1C(=S)Nc1ccc(Cl)c(C(=O)OCC(F)(F)F)c1`, for which the TGI in the test with HCT-15 colon is 45.3 µM; in the test with MDA-N it was more than 100 µM; with NCI-H460 lung, 48.1 µM; with 786-0 renal, 34.6 µM; in the test on HOP-92 NSCLC, 44.1 µM; with PC-3 prostate, 57.8 µM. The TGI in the test with SNB-19 CNS amounted to 43.9 µM; in the test with MALME-3M melanoma, 73.7 µM; in the test with A498 renal, 30.5 µM.

Take `O=C(O)C1CC2C3CCC2C1C3=O` (centres undefined): the TGI in the test with HCT-15 colon, in the test on MDA-N, with NCI-H460 lung, in the test with 786-0 renal, with HOP-92 NSCLC and with PC-3 prostate was more than 100 µM each time. Also, the TGI in the test with SNB-19 CNS, with MALME-3M melanoma and in the test with A498 renal was more than 100 µM throughout.

For the compound `CC1CC2OC(=O)C3CC(O)CC(=C23)[C@@]12C[C@@H](c1ccoc1)OC2=O` (some centres undefined), the TGI in the test with HCT-15 colon, in the test on NCI-H460 lung, with 786-0 renal, in the test with KM20L2 colon, with HOP-92 NSCLC and in the test with SNB-19 CNS was more than 100 µM each time. For the same compound, the TGI in the test with MALME-3M melanoma, with HOP-18 NSCLC and in the test with DMS 273 small cell lung was more than 100 µM in each case.

With `COc1ccc(C2c3cc4c(cc3C(O)C3CCC(=O)N23)OCO4)cc1` (centres undefined), the TGI in the test on HCT-15 colon, with MDA-N, in the test on NCI-H460 lung, in the test on 786-0 renal, in the test on HOP-92 NSCLC and with PC-3 prostate was more than 100 µM in each case. Also, the TGI in the test on SNB-19 CNS, in the test on MALME-3M melanoma and in the test on A498 renal was more than 100 µM throughout.

Consider `C[C@H]1[C@H](C)N(Cc2ccccc2)P(=O)(C(O)/C=C/c2ccccc2)N1Cc1ccccc1` (some centres undefined), for which the TGI in the test on HCT-15 colon was more than 25 µM; in the test on MDA-N, 13.6 µM; in the test with NCI-H460 lung it was 10.2 µM; with 786-0 renal, 10.9 µM; in the test on HOP-92 NSCLC, 19.7 µM; in the test with PC-3 prostate, 13 µM. Also, the TGI is more than 25 µM with SNB-19 CNS, 13.4 µM with MALME-3M melanoma and 10.3 µM with A498 renal.

As to `CN(C)c1ccc(-c2c(C#N)c(N)[nH]c(=S)c2C#N)cc1`, the TGI with HCT-15 colon, with MDA-N, with NCI-H460 lung, in the test with 786-0 renal, with HOP-92 NSCLC and with PC-3 prostate was more than 100 µM in each case. Also, the TGI in the test with SNB-19 CNS was more than 100 µM; in the test on MALME-3M melanoma it was more than 100 µM; in the test on A498 renal, 96.2 µM.
